Active and inactive are the calls of the source. No cut-off for these calls is given here.

For orientation: EC50 means the midpoint of the concentration-response curve.

For series [1], the target named is T1, Broad substrate specificity ATP-binding cassette transporter ABCG2 (Homo sapiens, UniProt Q9UNQ0).
T1 sequence (Q9UNQ0 whole entry): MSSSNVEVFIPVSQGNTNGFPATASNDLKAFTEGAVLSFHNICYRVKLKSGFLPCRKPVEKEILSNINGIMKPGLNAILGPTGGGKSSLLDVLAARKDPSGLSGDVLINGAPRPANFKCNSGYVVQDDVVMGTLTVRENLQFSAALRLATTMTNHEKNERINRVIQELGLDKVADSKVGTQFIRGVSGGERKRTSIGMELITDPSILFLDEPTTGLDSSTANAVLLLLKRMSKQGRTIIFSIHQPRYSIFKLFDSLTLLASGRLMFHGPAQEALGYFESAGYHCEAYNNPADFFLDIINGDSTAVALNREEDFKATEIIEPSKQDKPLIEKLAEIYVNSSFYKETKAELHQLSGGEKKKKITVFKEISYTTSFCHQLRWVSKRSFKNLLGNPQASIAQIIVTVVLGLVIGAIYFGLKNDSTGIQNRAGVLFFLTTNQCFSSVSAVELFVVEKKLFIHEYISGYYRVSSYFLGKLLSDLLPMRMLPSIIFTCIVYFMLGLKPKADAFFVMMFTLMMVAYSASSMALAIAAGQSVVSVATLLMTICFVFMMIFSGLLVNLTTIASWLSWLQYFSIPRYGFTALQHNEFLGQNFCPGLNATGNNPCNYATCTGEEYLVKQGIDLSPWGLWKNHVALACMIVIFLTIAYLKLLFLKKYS
Kind of series: Inhibition of BCRP (unknown origin) expressed in MDCK cells assessed as reduction of […] transport after 30 mins by fluorescence assay. It counts as cell-based.

Series [2] concerns the target Multidrug resistance-associated protein 1 (Homo sapiens, UniProt P33527). Nature of the series: Inhibition of MRP1 (unknown origin) expressed in MDCK cells assessed as reduction of calcein-AM transport after 30 mins by fluorescence assay. It counts as cell-based.
In the next series the test system is MDCK. Kind of series: Activation of ATPase activity of P-glycoprotein (unknown origin) expressed in MDCK cells assessed as reduction of reduction of ATP level after 2 hrs by luminescence assay. It counts as cell-based. To be noted: Homo sapiens.
Series [3] in a line: Inhibition of P-glycoprotein (unknown origin) expressed in MDCK cells assessed as reduction of calcein-AM transport after 30 mins by fluorescence assay. The series is classed as cell-based, Homo sapiens.
The nature of series [4]: P-glycoprotein-mediated transport in human Caco2 cells assessed as efflux ratio of apparent permeability from basolateral to apical over apical to basolateral after 120 mins. Conditions: caco-2, 2 h. The series is classed as ADME, cell-based.

Sequence of Multidrug resistance-associated protein 1 (P33527 whole entry): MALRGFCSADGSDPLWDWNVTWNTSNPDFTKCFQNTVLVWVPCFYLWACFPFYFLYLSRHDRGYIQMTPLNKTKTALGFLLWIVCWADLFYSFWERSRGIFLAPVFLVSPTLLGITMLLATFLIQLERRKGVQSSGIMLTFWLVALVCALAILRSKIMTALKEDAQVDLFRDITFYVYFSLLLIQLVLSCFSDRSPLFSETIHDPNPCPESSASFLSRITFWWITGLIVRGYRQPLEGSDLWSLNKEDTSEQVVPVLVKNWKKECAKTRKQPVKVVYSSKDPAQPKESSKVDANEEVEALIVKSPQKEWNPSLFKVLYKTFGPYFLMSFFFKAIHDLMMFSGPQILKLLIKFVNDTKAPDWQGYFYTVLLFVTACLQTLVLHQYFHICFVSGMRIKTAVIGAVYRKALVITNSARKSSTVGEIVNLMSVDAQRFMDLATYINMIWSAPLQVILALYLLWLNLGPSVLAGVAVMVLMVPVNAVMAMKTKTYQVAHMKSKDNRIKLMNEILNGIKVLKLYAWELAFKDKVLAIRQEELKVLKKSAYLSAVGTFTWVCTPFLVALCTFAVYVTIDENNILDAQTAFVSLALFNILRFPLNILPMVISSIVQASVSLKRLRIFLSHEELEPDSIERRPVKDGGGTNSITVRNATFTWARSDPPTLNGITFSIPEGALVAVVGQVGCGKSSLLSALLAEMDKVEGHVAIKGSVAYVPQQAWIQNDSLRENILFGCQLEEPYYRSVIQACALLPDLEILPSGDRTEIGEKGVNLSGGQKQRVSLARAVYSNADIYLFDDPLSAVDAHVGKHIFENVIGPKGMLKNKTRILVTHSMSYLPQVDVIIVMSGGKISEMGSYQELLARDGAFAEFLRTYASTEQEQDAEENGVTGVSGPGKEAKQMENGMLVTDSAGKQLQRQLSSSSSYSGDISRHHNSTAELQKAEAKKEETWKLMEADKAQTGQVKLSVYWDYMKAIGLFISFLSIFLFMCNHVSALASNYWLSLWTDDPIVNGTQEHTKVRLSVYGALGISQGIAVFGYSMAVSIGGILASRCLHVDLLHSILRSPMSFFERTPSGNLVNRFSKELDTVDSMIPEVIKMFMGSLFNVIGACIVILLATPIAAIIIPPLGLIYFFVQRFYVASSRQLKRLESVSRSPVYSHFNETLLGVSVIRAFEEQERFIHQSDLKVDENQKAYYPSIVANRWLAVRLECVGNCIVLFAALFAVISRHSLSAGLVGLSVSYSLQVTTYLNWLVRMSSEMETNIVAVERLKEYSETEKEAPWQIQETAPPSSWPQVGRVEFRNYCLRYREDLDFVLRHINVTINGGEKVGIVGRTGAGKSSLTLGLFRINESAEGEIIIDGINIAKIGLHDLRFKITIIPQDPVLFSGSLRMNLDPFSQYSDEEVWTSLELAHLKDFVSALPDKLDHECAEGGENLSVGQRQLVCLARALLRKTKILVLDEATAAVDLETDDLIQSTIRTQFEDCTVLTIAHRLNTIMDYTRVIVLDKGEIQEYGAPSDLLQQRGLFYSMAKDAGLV

With `COc1cc2c(cc1OC)CN(C(=O)COc1ccc3ccccc3n1)CC2`, the values for the EC50 in series [1], in series [2] and in series [3] were > 100 µM, > 100 µM and 67 µM, respectively. Also, the result in the series on MDCK was inactive.

On to `COc1cc2c(cc1OC)CN(CCCCCOc1ccc3ccccc3n1)CC2`, for which the results for the EC50 in series [1], in series [2] and in series [3] were > 100 µM, > 100 µM and 1.2 µM, respectively. In addition, the outcome with MDCK was inactive. Further, in series [4], the Ratio was found to be 2.9.

For the compound `COc1cc2c(cc1OC)CN(CCCOc1ccc3ccccc3n1)CC2`, the EC50 was > 100 µM in series [1], > 100 µM in series [2] and 6.1 µM in series [3]. Also, the outcome in the series on MDCK was inactive. In series [4], the Ratio worked out at 4.4.

As for `COc1cc2c(cc1OC)CN(CCOc1ccc3ccccc3n1)CC2`, the values for the EC50 in series [1], in series [2] and in series [3] were > 100 µM, > 100 µM and 1.3 µM, respectively. The result in the series with MDCK was inactive. Moreover, in series [4], the Ratio stood at 4.6.

As for `COc1cc2c(cc1OC)CN(CCCCOc1ccc3ccccc3n1)CC2`, the EC50 in series [1] was > 100 µM; in series [2], > 100 µM; in series [3], 4.3 µM. In addition, the result with MDCK was inactive. In addition, the Ratio in series [4] was determined as 4.2.

In the case of `COc1cc2c(cc1OC)CN(CCCOc1ccnc3ccccc13)CC2`, the figures for the EC50 in series [1], in series [2] and in series [3] were > 100 µM, > 100 µM and 40 µM, respectively. The result in the series on MDCK was inactive.
